{"source": "ChEMBL document CHEMBL1143142", "about": "“5-Substituted 1H-pyrrolo[3,2-b]pyridines as inhibitors of gastric acid secretion” (Bioorg Med Chem, 2008)", "key": {"[1]": {"tested_on": "Gastric gland", "assay": "Inhibition of gastric acid secretion in rabbit gastric gland assessed as accumulation of 14C]-[…]", "assay_type": "functional, tissue-based", "conditions": "Oryctolagus cuniculus"}, "[2]": {"assay": "Dissociation constant, pKa of the compound", "assay_type": "physicochemical"}, "[3]": {"assay": "Distribution coefficient, log D at pH 7.4", "conditions": "octanol/water"}, "[4]": {"assay": "Inhibition of hog gastric mucosa H/+K+ ATPase", "assay_type": "tissue-based"}}, "data": [{"compound": "Cc1cccc(C)c1CNc1cc(C(=O)N(C)C)nc2c(Br)c(C)[nH]c12", "values": [{"measurement": "IC50", "setting": "[1]", "result": 3.16, "unit": "µM"}, {"measurement": "pKa", "setting": "[2]", "result": 6.02}, {"measurement": "logD", "setting": "[3]", "result": "> 4.8"}, {"measurement": "Log IC50", "setting": "[4]", "result": -5}]}, {"compound": "Cc1cccc(C)c1CNc1cc(C(=O)N(C)C)nc2c(CO)c(C)n(Cc3ccccc3)c12", "values": [{"measurement": "IC50", "setting": "[1]", "result": 10, "unit": "µM"}, {"measurement": "pKa", "setting": "[2]", "result": 6.52}, {"measurement": "logD", "setting": "[3]", "result": 3.87}, {"measurement": "Log IC50", "setting": "[4]", "result": -4.6}]}, {"compound": "Cc1cccc(C)c1CNc1cc(C(=O)N(C)C)nc2c(CO)c(C)[nH]c12", "values": [{"measurement": "IC50", "setting": "[1]", "result": 63.1, "unit": "µM"}, {"measurement": "pKa", "setting": "[2]", "result": 7.2}, {"measurement": "logD", "setting": "[3]", "result": 2.95}, {"measurement": "Log IC50", "setting": "[4]", "result": -5.6}]}, {"compound": "Cc1cccc(C)c1CNc1cc(C(=O)N(C)C)nc2c(C)c(C)[nH]c12", "values": [{"measurement": "IC50", "setting": "[1]", "result": 0.251, "unit": "µM"}, {"measurement": "pKa", "setting": "[2]", "result": 7.56}, {"measurement": "Log IC50", "setting": "[4]", "result": -6.9}]}, {"compound": "Cc1cccc(C)c1CNc1cc(C(=O)N(C)C)nc2c(C)c(C)n(Cc3ccccc3)c12", "values": [{"measurement": "IC50", "setting": "[1]", "result": 1, "unit": "µM"}, {"measurement": "pKa", "setting": "[2]", "result": 6.86}, {"measurement": "logD", "setting": "[3]", "result": 5.2}, {"measurement": "Log IC50", "setting": "[4]", "result": -5.1}]}, {"compound": "CCc1cccc(C)c1CNc1cc(C(=O)N(C)C)nc2c(C)c(C)[nH]c12", "values": [{"measurement": "IC50", "setting": "[1]", "result": 0.251, "unit": "µM"}, {"measurement": "pKa", "setting": "[2]", "result": 7.57}, {"measurement": "logD", "setting": "[3]", "result": 4.6}, {"measurement": "Log IC50", "setting": "[4]", "result": -6.6}]}, {"compound": "CCc1cccc(C)c1CNc1cc(C(=O)N(C)C)nc2c(CO)c(C)[nH]c12", "values": [{"measurement": "IC50", "setting": "[1]", "result": 50.1, "unit": "µM"}, {"measurement": "pKa", "setting": "[2]", "result": 7.07}, {"measurement": "logD", "setting": "[3]", "result": 3.27}, {"measurement": "Log IC50", "setting": "[4]", "result": -5.7}]}, {"compound": "CNC(=O)c1cc(NCc2c(C)cccc2C)c2[nH]c(C)cc2n1", "values": [{"measurement": "IC50", "setting": "[1]", "result": 1.58, "unit": "µM"}, {"measurement": "pKa", "setting": "[2]", "result": 7.33}, {"measurement": "logD", "setting": "[3]", "result": 2.96}, {"measurement": "Log IC50", "setting": "[4]", "result": -5.5}]}, {"compound": "Cc1cccc(C)c1CNc1cc(C(=O)N(C)C)nc2c(C)c(C)n(C)c12", "values": [{"measurement": "IC50", "setting": "[1]", "result": 15.8, "unit": "µM"}, {"measurement": "pKa", "setting": "[2]", "result": 7.13}, {"measurement": "logD", "setting": "[3]", "result": 3.53}, {"measurement": "Log IC50", "setting": "[4]", "result": -4.6}]}, {"compound": "CCc1cccc(C)c1CNc1cc(C(=O)N(C)C)nc2c(Br)c(C)[nH]c12", "values": [{"measurement": "IC50", "setting": "[1]", "result": 10, "unit": "µM"}, {"measurement": "pKa", "setting": "[2]", "result": 5.84}, {"measurement": "logD", "setting": "[3]", "result": "> 4.8"}, {"measurement": "Log IC50", "setting": "[4]", "result": -5}]}, {"compound": "CCc1cccc(C)c1CNc1cc(C(=O)N(C)C)nc2cc(C)[nH]c12", "values": [{"measurement": "IC50", "setting": "[1]", "result": 3.16, "unit": "µM"}, {"measurement": "pKa", "setting": "[2]", "result": 7.39}, {"measurement": "logD", "setting": "[3]", "result": 4.1}, {"measurement": "Log IC50", "setting": "[4]", "result": -5.9}]}, {"compound": "Cc1cc2nc(C(=O)N(C)C)cc(NCc3c(C)cccc3C)c2[nH]1", "values": [{"measurement": "IC50", "setting": "[1]", "result": 2.51, "unit": "µM"}, {"measurement": "pKa", "setting": "[2]", "result": 7.3}, {"measurement": "logD", "setting": "[3]", "result": 3.62}, {"measurement": "Log IC50", "setting": "[4]", "result": -6.1}]}, {"compound": "CNC(=O)c1cc(NCc2c(C)cccc2C)c2[nH]c(C)c(Br)c2n1", "values": [{"measurement": "IC50", "setting": "[1]", "result": 5.01, "unit": "µM"}, {"measurement": "pKa", "setting": "[2]", "result": 7.39}, {"measurement": "Log IC50", "setting": "[4]", "result": "< -4"}]}, {"compound": "Cc1cccc(C)c1CNc1cc(C(=O)N(C)C)nc2c(C)c(C)n(CC(C)O)c12", "note": "(centres undefined)", "values": [{"measurement": "IC50", "setting": "[1]", "result": 3.98, "unit": "µM"}, {"measurement": "pKa", "setting": "[2]", "result": 7.19}, {"measurement": "logD", "setting": "[3]", "result": 3.4}, {"measurement": "Log IC50", "setting": "[4]", "result": -4.8}]}]}
